{"source": "patent US20040229241A1", "about": "“Cloned mammalian polyamine oxidase” (priority 2001, published 2004)", "key": {"[1]": {"tested_on": "SSAT", "experiment": "SSAT activity of NCI A549 cellular extracts", "format": "cell-based, human", "conditions": "NCI A549, 10 μM, 24 h; untreated 5 ± 0.1", "from_the_text": "(§1) Total cellular RNA was extracted from the lung cancer cell lines using Trizol reagent (Invitrogen) according to the manufacturer's protocol. For Northern blotting, total RNA (20 lg) was separated on a denaturing 1.5% agarose gel containing 6% formaldehyde and transferred to Zetaprobe membrane (Bio-Rad). Random primer- labeled PAOh1 cDNA was used as probe to estimate PAOh1/SMO expression. Blots were stripped and reprobed with an 18S ribosomal cDNA to provide a loading control. Analysis of polyamine content, SSAT and PAOh1/SMO activity. Intracellular polyamine concentrations were determined using the precolumn dansylation labeling, reverse-phase high-pressure liquid chromatography method as described by Kabra et al. using 1,7-diaminoheptane as an internal standard. Polyamine concentrations are reported as nanomoles per milligram protein for each sample, where lysate protein content was measured by the method of Bradford. SSAT activity of cellular extracts was measured as previously described. […] The PAOh1/SMO assays were performed in the presence of 1.0 mM pargyline and 0.1 mM semicarbizide as inhibitors of monoamine oxidase (MAO) and diamine oxidase (DAO), respectively."}, "[2]": {"tested_on": "PAOh1/SMO", "experiment": "PAOh1/SMO activity and mRNA in small-cell lung cancer lines NCI H82 and NCI H889 after BENSpm", "format": "cell-based, human", "conditions": "two small-cell lung cancer lines, 10 μM, 24 h", "protocol": "Cell Culture and Analysis of Growth Inhibition of Human Lung Cancer Cell Lines The non-small-cell cancer lines NCI A549 (adenocarcinoma), NCI H157 (squamous), NCI H727 (carcinoid), NCI H125 (adenocarcinoma) and U1752 (squamous), and the small-cell lung carcinoma lines NCI H82 and NCI H889 were cultured as we have previously described. Cells were treated for the times and with the concentrations of specific agents as indicated in the Results. For cell growth analysis in the presence of the PAOh1/SMO inhibitor MDL 72,527, the MTS dye reduction assay CellTiter 96 system from Promega was used according to the supplier's protocol. […]\nTotal cellular RNA was extracted from the lung cancer cell lines using Trizol reagent (Invitrogen) according to the manufacturer's protocol. […] Intracellular polyamine concentrations were determined using the precolumn dansylation labeling, reverse-phase high-pressure liquid chromatography method as described by Kabra et al. using 1,7-diaminoheptane as an internal standard. Polyamine concentrations are reported as nanomoles per milligram protein for each sample, where lysate protein content was measured by the method of Bradford. SSAT activity of cellular extracts was measured as previously described. […]"}, "[3]": {"tested_on": "PAOh1/SMO", "experiment": "PAOh1/SMO activity in lysates of NCI A549 cells after analogue treatment", "format": "cell-based, human", "protocol": "(§2) Cell Culture and Analysis of Growth Inhibition of Human Lung Cancer Cell Lines The non-small-cell cancer lines NCI A549 (adenocarcinoma), NCI H157 (squamous), NCI H727 (carcinoid), NCI H125 (adenocarcinoma) and U1752 (squamous), and the small-cell lung carcinoma lines NCI H82 and NCI H889 were cultured as we have previously described. Cells were treated for the times and with the concentrations of specific agents as indicated in the Results. For cell growth analysis in the presence of the PAOh1/SMO inhibitor MDL 72,527, the MTS dye reduction assay CellTiter 96 system from Promega was used according to the supplier's protocol. In these experiments, NCI A549 cells were seeded at 5×10^3 cells/well in a 96-well microtiter plate and treated for 96 h with 10 μM of the indicated analogue in the presence or absence of 250 μM MDL 72,527.\nas §1"}, "[4]": {"tested_on": "PAO message", "experiment": "Northern blot of PAO mRNA in NCI H157 cells after analogue treatment", "format": "cell-based, human", "conditions": "10 μM, 24 h", "protocol": "RNA Purification and Northern Blot Assay. Total cellular RNA from the NCI H157 cell line was extracted using Trizol total RNA reagent according to the protocol from the manufacturer. Total RNA (20 μg) was separated on a denaturing 1.5% agarose gel containing 6% formaldehyde, transferred to Zetaprobe membrane (Bio-Rad), and hybridized with a random primer-labeled pPAOh1 cDNA as the probe. Blots were washed and reprobed with an 18S ribosomal cDNA probe as a loading control."}, "[5]": {"molecular_target": "T1, purified recombinant human PAOh1/SMO (Homo sapiens, UniProt Q9NWM0)", "T1 construct": "A 1702 bp fragment of the PAOh1cDNA was produced by PCR; His tag (pET15b) (N); made in house; host or cells: Escherichia coli BL21(DE3)", "T1 sequence (Q9NWM0 whole entry, the tested form may be a part)": "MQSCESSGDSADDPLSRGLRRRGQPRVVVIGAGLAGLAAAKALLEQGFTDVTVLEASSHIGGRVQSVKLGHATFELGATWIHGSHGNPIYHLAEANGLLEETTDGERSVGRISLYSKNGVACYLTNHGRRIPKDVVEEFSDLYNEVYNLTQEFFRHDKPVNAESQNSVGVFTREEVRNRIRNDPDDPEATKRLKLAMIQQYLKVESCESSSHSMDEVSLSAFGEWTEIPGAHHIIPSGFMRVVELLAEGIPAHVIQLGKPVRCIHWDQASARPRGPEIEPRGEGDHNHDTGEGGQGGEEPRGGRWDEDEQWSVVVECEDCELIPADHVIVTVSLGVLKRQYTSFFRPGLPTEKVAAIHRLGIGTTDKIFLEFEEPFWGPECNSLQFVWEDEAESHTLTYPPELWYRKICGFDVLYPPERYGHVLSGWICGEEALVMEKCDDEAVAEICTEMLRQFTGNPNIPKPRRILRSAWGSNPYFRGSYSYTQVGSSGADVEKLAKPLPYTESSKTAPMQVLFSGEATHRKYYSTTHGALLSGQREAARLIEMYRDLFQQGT", "experiment": "Oxidase activity of purified recombinant PAOh1/SMO, luminol chemiluminescence", "format": "biochemical", "protocol": "Expression and Purification of PAOh1/SMO. The pET15b/PAOh1/SMO plasmid was used to transform the BL21(DE3) strain of Escherichia coli (Novagen) and transformed cells were selected on LB agar with 50 μg/ml ampicillin. The expression of PAOh1/SMO protein was induced in LB medium by the addition of 1 mM IPTG for 3 h at 37 ° C. Cell lysates were prepared under denaturing conditions with 8M urea and PAOh1/SMO protein was purified from the lysate by Ni-NTA resin according to the manufacturer's protocol (Qiagen, Valencia, Calif.). The resulting denatured protein was renatured in buffers containing decreasing concentrations of urea (5M urea, 4 h; 2.5M urea, 4 h; 1M urea, 12 h; and 0M urea, 12 h) and 50 mM Tris-HCl, pH 7.5, 250 mM NaCl, 0.1 mM EDTA, 1 mM DTT, and 0.2 μM flavin adenine dinucleotide (FAD).\nDetermination of PAO enzyme activity. PAO activity of the purified PAOh1/SMO was assayed using a modi.cation of the chemiluminesence analysis reported by Fernandez et al. and Rogers, et al.. Briefly, luminol-dependent chemiluminescence was determined using a Monolight 3010 luminometer with two reagent injectors. Luminol was prepared as a 100 mM stock solution in DMSO and diluted to 100 μM with H2O, immediately prior to use. Purified PAOh1/SMO was assayed in a 100 mM glycine buffer, pH 8.0, 5 ηmol luminol, 20 μg horseradish peroxidase, and the polyamine substrate as indicated. All reagents with the exception of the polyamine substrate were combined and incubated for 2 min at 37 ° C., then the tube was transferred to the luminometer, substrate was added, and the resulting chemiluminescence was integrated over 20 s. The integral values are calibrated against standards containing known concentrations of H2O2 and the activities are expressed as pmols H2O2/mg protein/min. Where indicated, inhibitors were added at the specified concentrations prior to the addition of substrate. Km and Vmax values for the purified enzyme with the indicated substrate were estimated using Lineweaver-Burk transformation of the Michaelis-Menten kinetic equation."}, "[6]": {"tested_on": "PAO", "experiment": "PAO activity in homogenates of NCI H157 cells after analogue treatment", "format": "cell-based, human", "conditions": "10 μM, 24 h", "protocol": "Determination of PAO Enzyme Activity. The cultured H157 cells with or without treatment of 10 μM N^1, N″-bis(ethyl)norspermine (BENSpm) were homogenized with a Dounce tissue homogenizer in ice-cold 0.083 M sodium borate buffer (pH 9.0). The PAO activity in homogenates was assayed by the method of Suzuki et al. […] The enzyme activity was stopped by the addition of 2.0 ml of 0.1 M NaOH solution. The fluorescence intensity was measured with excitation at 323 nm and emission at 426 nm. […] Protein content of the cellular homogenate was determined using the Bio-Rad protein assay kit (Bio-Rad). […] For determination of PAO activity in the product of the unlabeled TnT reaction, 10 μl of TnT reaction were used in the place of the homogenate. The PAO activity in the TnT reactions was represented by the fluorescent compound formed within the 1-h incubation. […] The concentrations chosen for each inhibitor were based on studies published previously (12)."}, "[7]": {"tested_on": "NCI A549 cells", "experiment": "Intracellular polyamine and analogue content of NCI A549 cells (HPLC)", "format": "cell-based, human", "conditions": "NCI A549, 10 μM, 24 h", "from_the_text": "as §1"}, "[8]": {"tested_on": "NCI A549 cells", "experiment": "MTS cell growth analysis of NCI A549 cells with or without MDL 72,527", "format": "cell-based, human", "protocol": "as §2"}, "[9]": {"molecular_target": "T2, human PAOh1 (Homo sapiens, UniProt Q9NWM0)", "T2 construct": "made in house; host or cells: TnT-coupled wheat germ extract (Promega), template pPAOh1 (pcDNA3.1)", "T2 sequence (Q9NWM0 whole entry)": "as the sequence (Q9NWM0 whole entry, the tested form may be a part) above", "experiment": "PAO activity of in vitro TnT (wheat germ) produced PAOh1, fluorescent H2O2 assay", "format": "biochemical", "conditions": "0.25 mM inhibitor, 250 μM spermine as substrate", "protocol": "In Vitro Transcription and Translation. In vitro transcription and translation reactions were performed with the TnT-coupled wheat germ extract system. Parallel reactions were prepared by adding an unlabeled amino acid mixture to one reaction and a [^35S]methionine containing amino acid mixture to the other, according to the supplied protocol. Vector pcDNA3.1 and pPAOh1 were linearized by SalI restriction and served as the templates. The labeled translation reactions products were separated by 10% SDS-PAGE, and radioactivity on the labeled PAO band was determined by Phosphor image analysis using Image Quant software (Molecular Dynamics, Sunnyvale, Calif.).\nDetermination of PAO Enzyme Activity. The cultured H157 cells with or without treatment of 10 μM N^1, N″-bis(ethyl)norspermine (BENSpm) were homogenized with a Dounce tissue homogenizer in ice-cold 0.083 M sodium borate buffer (pH 9.0). […] The enzyme activity was stopped by the addition of 2.0 ml of 0.1 M NaOH solution. The fluorescence intensity was measured with excitation at 323 nm and emission at 426 nm. […] Protein content of the cellular homogenate was determined using the Bio-Rad protein assay kit (Bio-Rad). […] For determination of PAO activity in the product of the unlabeled TnT reaction, 10 μl of TnT reaction were used in the place of the homogenate. […]"}}, "data": [{"smiles": "CCNCCCNCCCNCCCNCC", "note": "[BENSpm, N^1,N^11-bis(ethyl)norspermine]", "values": [{"measurement": "SSAT activity", "setting": "[1]", "value": "5590 ± 517.7 pmol N^1-acetylspermidine/mg p"}, {"measurement": "increase in PAOh1/SMO activity", "setting": "[2]", "value": "no observed increase"}, {"measurement": "increase in PAOh1/SMO mRNA", "setting": "[2]", "value": "no observed increase"}, {"measurement": "fold increase of PAOh1/SMO activity", "setting": "[3]; NCI A549, 10 μM, 12 h", "value": "approximately threefold"}, {"measurement": "fold induction of PAOh1/SMO activity", "setting": "[3]; NCI A549, 10 μM, 24 h, 250 μM spermine as substrate", "value": "about fivefold"}, {"measurement": "PAOh1/SMO activity", "setting": "[3]; NCI A549, 10 μM, 24 h, untreated 6,390 ± 2,070", "value": "16,100 ± 780 pmol H2O2/mg/h"}, {"measurement": "induction of PAOh1/SMO activity", "setting": "[3]; NCI A549, 24 h exposure to 10 μM of each analogue", "value": "significant induction"}, {"measurement": "concentration of maximal induction of PAOh1/SMO", "setting": "[3]; NCI A549, increasing concentrations, 24 h", "value": 5, "unit": "µM"}, {"measurement": "increase in PAO message", "setting": "[4]", "value": "~5", "unit": "fold"}, {"measurement": "ability to serve as substrate (oxidation by purified PAOh1/SMO)", "setting": "[5]; 250 μM of compound", "value": "none of the analogues examined were found to be oxidized"}, {"measurement": "increase in PAO activity", "setting": "[6]", "value": "> 3", "unit": "fold"}, {"measurement": "Polyamine: Putrescine", "setting": "[7]; untreated 2.1 ± 0.7", "value": "<0.05", "unit": "nmol/mg protein"}, {"measurement": "Polyamine: Spermine", "setting": "[7]; untreated 9.9 ± 1.2", "value": "1.2 ± 0.3", "unit": "nmol/mg protein"}, {"measurement": "Polyamine: Spermidine", "setting": "[7]; untreated 26.9 ± 1.2", "value": "1.2 ± 0.8", "unit": "nmol/mg protein"}, {"measurement": "sensitivity of cell growth to analogue in the presence of the PAOh1/SMO inhibitor", "setting": "[8]; NCI A549, 96 h, 10 μM analogue with 250 μM MDL 72,527", "value": "clear decrease in sensitivity"}]}, {"smiles": "C=C=CCNCCCCNCC=C=C", "note": "[MDL 72,527, N^1,N^4-bis(2,3-butadienyl)-1,4-butanediamine]", "values": [{"measurement": "inhibition of the human PAOh1 protein product", "setting": "[9]", "value": "effective in inhibiting"}, {"measurement": "basal oxidase activity in the presence of inhibitor", "setting": "[3]; NCI A549 basal activity (4184 without inhibitor), 250 μM MDL 72,527", "value": 4055, "unit": "pmol/mg per hour"}, {"measurement": "effect on the basal levels of oxidase activity", "setting": "[3]; NCI A549 lysate, 250 μM MDL 72,527", "value": "did not significantly reduce"}, {"measurement": "inhibition of the PAOh1/SMO activity induced by the analogues", "setting": "[3]; NCI A549 lysate, 250 μM MDL 72,527 in the assay", "value": "significantly inhibited"}, {"measurement": "part of the basal level of oxidase activity that is inhibited", "setting": "[3]; basal (untreated) lung cancer cell lysate", "value": "less than 10%"}, {"measurement": "IC50", "setting": "[5]", "value": "~10", "unit": "µM"}, {"measurement": "inhibition at 250 µM", "setting": "[5]; read-out: inhibition of oxidation of spermine", "value": "> 95", "unit": "%"}, {"measurement": "effect of the inhibitor alone on growth", "setting": "[8]; NCI A549, 250 μM MDL 72,527", "value": "did not adversely affect the growth"}]}]}
